The source of these data is US11919907B2, “Deuterated JAK inhibitor and uses thereof” (Sun Pharmaceutical Industries, Inc., priority 2020, dated 2024).

SMILES strings stand for the structures. Like-named read-outs stand apart in the source and are kept apart here.

One may read the IC50 as the concentration at which inhibition is half-maximal.

Data set [1] can be described thus: Metabolic stability using human liver microsomes. It is filed as in vitro ADME. As to conditions: for half-life at 0.25 μM: human. The procedure:
Materials: Human liver microsomes (20 mg/mL) were obtained from Xenotech, LLC (Lenexa, Kans.). β-nicotinamide adenine dinucleotide phosphate, reduced form (NADPH), magnesium chloride (MgCl2), and dimethyl sulfoxide (DMSO) were purchased from Sigma-Aldrich. Compound 10 and non-deuterated Compound 50 as test compounds were supplied by Concert Pharmaceuticals:
Determination of Metabolic Stability: 7.5 mM stock solutions of test compounds were prepared in DMSO. The 7.5 mM stock solutions were diluted to 12.5 μM in acetonitrile (ACN). The human liver microsomes were diluted in 0.1 M potassium phosphate buffer, pH 7.4, containing 3 mM MgCl2. The diluted microsomes were added to wells of a 96-well deep-well polypropylene plate in triplicate. A 10 μL aliquot of the 12.5 μM test compound was added to the microsomes and the mixture was pre-warmed for 10 minutes. Reactions were initiated by addition of pre-warmed NADPH solution. The final reaction volume was 0.5 mL and contained […] human liver microsomes, 0.25 μM test compound, and 2 mM NADPH in 0.1 M potassium phosphate buffer, pH 7.4, and 3 mM MgCl2. The reaction mixtures were incubated at 37° C., and 50 μL aliquots were removed at 0, 10, 20, 30, 45, and 60 minutes and added to shallow-well 96-well plates which contained 50 μL of ice-cold ACN with internal standard to stop the reactions. The plates were stored at 4° C. for 20 minutes after which 100 μL of water was added to the wells of the plate before centrifugation to pellet precipitated proteins. Supernatants were transferred to another 96-well plate and analyzed for amounts of parent remaining by LC-MS/MS using an Applied Bio-systems mass spectrometer.
Data analysis: The in vitro t1/2s for test compounds were calculated from the slopes of the linear regression of % parent remaining (ln) vs incubation time relationship. in vitro t1/2=0.693/k k=−[slope of linear regression of % parent remaining(ln) vs incubation time] Data analysis was performed using Microsoft Excel Software.
Background: Microsomes from liver hold many membrane-bound enzymes, among them those of drug oxidation.

For data set [2], the target named is T1, kinase domain of human recombinant JAK2 (Homo sapiens, UniProt O60674).
T1 construct: using the kinase domains of human recombinant JAK1, JAK2, JAK3 and TYK2
T1 sequence (O60674 849-1124 limits assumed): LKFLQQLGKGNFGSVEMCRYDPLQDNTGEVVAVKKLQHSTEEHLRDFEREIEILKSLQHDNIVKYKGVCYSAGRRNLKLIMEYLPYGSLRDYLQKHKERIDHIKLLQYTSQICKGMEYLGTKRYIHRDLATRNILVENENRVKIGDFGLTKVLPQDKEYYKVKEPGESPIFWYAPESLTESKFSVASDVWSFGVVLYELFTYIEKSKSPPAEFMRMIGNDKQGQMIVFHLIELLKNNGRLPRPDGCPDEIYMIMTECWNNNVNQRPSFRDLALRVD
The experiment in a line: JAK enzyme biochemical assay (Eurofins CEREP), JAK2. Conditions: ATP at Km, 100 nM substrate peptide, 60 minutes, duplicate. The procedure: (§1) JAK enzyme biochemical assays were performed at Eurofins CEREP, France using the kinase domains of human recombinant JAK1, JAK2, JAK3 and TYK2. Each enzyme reaction was carried out with Compound 10 (supplied by Concert Pharmaceuticals) or control, JAK enzyme, 100 nM substrate peptide (LANCE® Ultra U-light JAK-1 peptide) and adenosine triphosphate (ATP; concentration at Km) for 60 minutes. Test compounds were dissolved in DMSO and tested in duplicate. It can be seen that Compound 10 had significant potency for inhibition of JAK enzymes.

The target of data set [3] is T2, kinase domain of human recombinant TYK2 (Homo sapiens, UniProt P29597).
T2 construct: using the kinase domains of human recombinant JAK1, JAK2, JAK3 and TYK2
T2 sequence (P29597 897-1176 limits assumed): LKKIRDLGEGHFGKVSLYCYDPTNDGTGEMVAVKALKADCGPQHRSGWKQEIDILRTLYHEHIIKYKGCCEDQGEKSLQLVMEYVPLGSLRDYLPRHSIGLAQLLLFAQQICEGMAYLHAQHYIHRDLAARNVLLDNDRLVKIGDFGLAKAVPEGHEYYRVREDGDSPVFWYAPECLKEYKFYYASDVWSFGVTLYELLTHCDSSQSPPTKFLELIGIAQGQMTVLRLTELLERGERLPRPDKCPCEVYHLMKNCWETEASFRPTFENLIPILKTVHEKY
Put plainly: JAK enzyme biochemical assay (Eurofins CEREP), TYK2. As to conditions: ATP at Km, 100 nM substrate peptide, 60 minutes, duplicate. The procedure:
as §1

Data set [4] deals with T3, kinase domain of human recombinant JAK1 (Homo sapiens, UniProt P23458).
T3 construct: using the kinase domains of human recombinant JAK1, JAK2, JAK3 and TYK2
T3 sequence (P23458 875-1153 limits assumed): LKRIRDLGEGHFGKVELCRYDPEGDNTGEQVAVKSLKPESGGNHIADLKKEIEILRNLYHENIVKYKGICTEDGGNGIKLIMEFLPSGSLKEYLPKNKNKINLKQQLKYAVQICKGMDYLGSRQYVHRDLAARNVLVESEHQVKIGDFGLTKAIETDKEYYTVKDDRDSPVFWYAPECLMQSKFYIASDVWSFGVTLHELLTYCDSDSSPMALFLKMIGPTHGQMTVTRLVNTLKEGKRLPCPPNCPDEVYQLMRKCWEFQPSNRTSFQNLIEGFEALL
Put plainly: JAK enzyme biochemical assay (Eurofins CEREP), JAK1. Conditions: ATP at Km, 100 nM substrate peptide, 60 minutes, duplicate. As to the method: as §1

Data set [5] concerns the target T4, kinase domain of human recombinant JAK3 (Homo sapiens, UniProt P52333).
T4 construct: using the kinase domains of human recombinant JAK1, JAK2, JAK3 and TYK2
Put plainly: JAK enzyme biochemical assay (Eurofins CEREP), JAK3. As to conditions: ATP at Km, 100 nM substrate peptide, 60 minutes, duplicate. The procedure:
as §1

Where [6] appears, read: pH 7.4, 5 mg/mL human liver microsomes, 0.25 μM test compound, 2 mM NADPH, 37° C., experiment 2498, read-out: t1/2 EXP# 2498.
[7] abbreviates: pH 7.4, 5 mg/mL human liver microsomes, 0.25 μM test compound, 2 mM NADPH, 37° C., experiment 2500, read-out: t1/2 EXP# 2500.
The mark [8] stands for this setting: pH 7.4, 5 mg/mL human liver microsomes, 0.25 μM test compound, 2 mM NADPH, 37° C., experiment 2501, read-out: t1/2 EXP# 2501.
Where [9] appears, read: pH 7.4, human liver microsomes, average of EXP# 2498, 2500, 2501, read-out: t1/2 Average.

T4 sequence (P52333 822-1111 limits assumed): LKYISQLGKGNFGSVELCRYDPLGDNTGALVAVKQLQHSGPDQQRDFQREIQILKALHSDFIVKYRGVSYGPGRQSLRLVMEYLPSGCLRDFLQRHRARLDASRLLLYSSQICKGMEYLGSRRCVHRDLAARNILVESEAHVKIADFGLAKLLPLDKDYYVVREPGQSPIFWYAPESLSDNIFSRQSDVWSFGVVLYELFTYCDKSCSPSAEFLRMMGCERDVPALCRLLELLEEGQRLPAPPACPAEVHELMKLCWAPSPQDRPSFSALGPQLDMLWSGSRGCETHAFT

In the case of `[2H]C1([2H])C([C@@H](CC(N)=O)n2cc(-c3ncnc4[nH]ccc34)cn2)C([2H])([2H])C([2H])([2H])C1([2H])[2H]` [Compound 10], the “Average % diff. in t1/2 (longer half-life than non-deuterated Compound 50)” value in data set [1] (Compound 10 versus Compound 50, average t1/2) stood at 176%. The half-life at 0.25 μM came to 1.6 h in data set [1] (setting [6]), 4.5 h in data set [1] (setting [7]), 4.97 h in data set [1] (setting [8]) and 3.68 h in data set [1] (setting [9]). The IC50 in data set [2] was found to be 34 nM; in data set [3] it was 368 nM; in data set [4] it was 63.9 nM; in data set [5], 226 nM.
Take `NC(=O)C[C@H](C1CCCC1)n1cc(-c2ncnc3[nH]ccc23)cn1` [Compound 50, reference compound]: the half-life at 0.25 μM worked out at 0.822 h in data set [1] (setting [6]), 1.33 h in data set [1] (setting [7]), 1.87 h in data set [1] (setting [8]) and 1.33 h in data set [1] (setting [9]).
